Results published in PubChem BioAssay AID2060623 (Molecular Pharmacology Branch, DTP, NCI, 2025).

Tested on: 227483-062-R1-J1-PDC complex spheroids with HUVEC/MSC, viability
Experiment: Anticancer human tumor 227483-062-R1-J1-PDC patient-derived pancreatic carcinoma cell line growth inhibition [CLK]
Conditions: for IC50: curve of first compound; for viability, T/C: stronger effect = lower value
Source text: A high-throughput screen of multi-cell type tumor spheroids was designed to identify active combinations of […] and targeted small molecules. Complex spheroids include a stromal component modeled by human endothelial cells (HUVEC) and fibroblasts modeled by human mesenchymal stem cells (MSCs). The concentration ranges selected for each drug and investigational agent were based upon clinically achievable concentrations if the clinical Cmax of the agent was known.
Compounds. The drugs and investigational agents: cirtuvivint (SM08502; NSC835563), CC-671 (NSC850746), vemurafenib (NSC761431), tapotoclax (NSC804041), sotorasib (NSC818433), adagrasib (NSC831453), MRTX-1133 (NSC836407), BAY2416964 (NSC825713), copanlisib (NSC816437), inavolisib (NSC800729), abemaciclib (NSC768073), osimertinib (NSC779217), entinostat (NSC756642), eltanexor (KPT-8602, NSC794443), venetoclax (NSC766270), ceralasertib (NSC777638), bortezomib (NSC756655), olaparib (NSC753686), talazoparib (NSC767125), alisertib (NSC759677), peposertib (NSC802822), gemcitabine (NSC613327), 5-fluorouracil (NSC19893), SN-38 (NSC673596), oxaliplatin (NSC266046), paclitaxel (NSC125973), and doxorubicin (NSC123127), were obtained from the National Cancer Institute (NCI) Developmental Therapeutics Program Chemical Repository. The FDA-approved anticancer drug set is available from the Developmental Therapeutics Program at https://dtp.cancer.gov/organization/dscb/obtaining/available plates.htm. […] The stock solutions were prepared in dimethyl sulfoxide (DMSO, Sigma-Aldrich, St. Louis, MO, cat. D2650), except for the platinum complexes which were prepared in saline (Quality Biological, Gaithersburg, MD, cat. 114-055-101), at 800-fold the tested concentration and stored at -70 degrees C prior to their use. All drugs and investigational agents were tested over a range starting from a high concentration at or near the clinical Cmax and decreasing in half-log increments. If the clinical Cmax for an agent had not been determined, the highest concentration tested was 10 microM.
Cell Culture. All cells were maintained in an incubator at 37 degrees C and 5% CO2 with 95% humidity. The PDC lines were cultured according to standard operating procedures established by the NCI PDMR. Briefly, all PDCs were thawed and cultured in Matrigel-coated flasks prepared with a working solution of 1X Ham's F-12 nutrient mix, without supplementation (Invitrogen, Waltham, MA, cat. 11765054), 100 U/mL penicillin-streptomycin (Invitrogen, cat. 15140122), and 2.5% Matrigel (Corning Inc., Corning, NY, cat. 354248) for the first three passages. The 947758-054-R-J2-PDC line was cultured in 6B/Colon 1A media, which includes advanced DMEM/F-12 (Thermo Fisher Scientific, cat. 12634028), 10 mM HEPES (Thermo Fisher Scientific, cat. 15630080), 1X GlutaMAX supplement (Thermo Fisher Scientific, cat. 35050061), 0.1 mg/mL primocin (InvivoGen, cat. ant-pm-2), 10% defined fetal bovine serum, heat inactivated (HyClone Laboratories Inc., cat. SH30070.03HI), 1.25 mM N-Acetyl-L-cysteine (Sigma-Aldrich, cat. A9165), 10 mM nicotinamide (Sigma-Aldrich, cat. N0636), 1X B-27 supplement (Thermo Fisher Scientific, cat. 17504044), 1X N-2 supplement (Thermo Fisher Scientific, cat. 17502048), and 10 microM Y-27632 dihydrochloride (Tocris Bioscience, cat. 1254). The 876862-298-R-J1-PDC was cultured in 6E media, which includes all 6B/Colon 1A media components plus 50% L-WRN conditioned media (ATCC, cat. CRL-3276), 50 ng/mL recombinant human EGF recombinant protein (hEGF; Thermo Fisher Scientific, cat. PHG0311), 10 ng/mL recombinant human fibroblast growth factor 10 (hGFG-10; PeproTech, cat. 100-26), 1 ng/mL recombinant human fibroblast growth factor 2 (hFGF-2; PeproTech, cat. 100-18B), and 1 µM prostaglandin E2 (PGE2; Tocris, cat. 2296). The 227483-062-R1-J1-PDC line was cultured in Panc media, containing all 6E components except hFGF-2, with the addition of 500 nM SB-431542 (Selleckchem, cat. S1067) and 10 nM gastrin (Tocris, cat. 3006). […]

[1] = second compound 0.0316 µM, first compound 0.0316 µM
[2] = second compound 0.0316 µM, first compound 0.1 µM
[3] = second compound 0.0316 µM, first compound 0.316 µM
[4] = second compound 0.0316 µM, first compound 1 µM
[5] = second compound 0.0316 µM, first compound 3.16 µM
[6] = second compound 0.0316 µM, first compound 10 µM
[7] = second compound 0.1 µM, first compound 0.0316 µM
[8] = second compound 0.1 µM, first compound 0.1 µM
[9] = second compound 0.1 µM, first compound 0.316 µM
[10] = second compound 0.1 µM, first compound 1 µM
[11] = second compound 0.1 µM, first compound 3.16 µM
[12] = second compound 0.1 µM, first compound 10 µM
[13] = second compound 0.316 µM, first compound 0.0316 µM
[14] = second compound 0.316 µM, first compound 0.1 µM
[15] = second compound 0.316 µM, first compound 0.316 µM
[16] = second compound 0.316 µM, first compound 1 µM
[17] = second compound 0.316 µM, first compound 3.16 µM
[18] = second compound 0.316 µM, first compound 10 µM
[19] = second compound 1 µM, first compound 0.0316 µM
[20] = second compound 1 µM, first compound 0.1 µM
[21] = second compound 1 µM, first compound 0.316 µM
[22] = second compound 1 µM, first compound 1 µM
[23] = second compound 1 µM, first compound 3.16 µM
[24] = second compound 1 µM, first compound 10 µM
[25] = second compound 3.16 µM, first compound 0.0316 µM
[26] = second compound 3.16 µM, first compound 0.1 µM
[27] = second compound 3.16 µM, first compound 0.316 µM
[28] = second compound 3.16 µM, first compound 1 µM
[29] = second compound 3.16 µM, first compound 3.16 µM
[30] = second compound 3.16 µM, first compound 10 µM
[31] = second compound 10 µM, first compound 0.0316 µM
[32] = second compound 10 µM, first compound 0.1 µM
[33] = second compound 10 µM, first compound 0.316 µM
[34] = second compound 10 µM, first compound 1 µM
[35] = second compound 10 µM, first compound 3.16 µM
[36] = second compound 10 µM, first compound 10 µM
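Further: spheroids exposed to compounds for seven days before readout.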
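Wherever viability, T/C is given: percent of DMSO vehicle control luminescence as 100% viability.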

For `C=CC(=O)N1CCN(c2nc(=O)n(-c3c(C)ccnc3C(C)C)c3nc(-c4c(O)cccc4F)c(F)cc23)C(C)C1` (stereo unspecified) + CN1CCN(c2cc(C(=O)Nc3cc4cc(-c5cnn(C)c5)ccc4cn3)ccn2)CC1, the IC50 (second compound 0.0316 µM) was > 10000 nM, the IC50 (second compound 0.1 µM) was > 10000 nM and the IC50 (second compound 0.316 µM) was < 31.6 nM. For the same compound, the IC50 (second compound 1 µM) was < 31.6 nM, the IC50 (second compound 3.16 µM) was < 31.6 nM and the IC50 (second compound 10 µM) was < 31.6 nM. The viability, T/C [1] was 90.4%, the viability, T/C [2] was 97.5% and the viability, T/C [3] was 94.7%. The viability, T/C [4] was 104%, the viability, T/C [5] was 104% and the viability, T/C [6] was 85.5%. It also gave a viability, T/C [7] of 63.2%, a viability, T/C [8] of 68.1% and a viability, T/C [9] of 63.1%. For the same compound, the viability, T/C [10] was 76.8%, the viability, T/C [11] was 66.4% and the viability, T/C [12] was 52.7%. For the same compound, the viability, T/C [13] was 6.84%, the viability, T/C [14] was 6.59% and the viability, T/C [15] was 5.21%. It also gave a viability, T/C [16] of 7.81%, a viability, T/C [17] of 5.13% and a viability, T/C [18] of 3.55%. It also gave a viability, T/C [19] of 3.36%, a viability, T/C [20] of 2.83% and a viability, T/C [21] of 2.54%. For the same compound, the viability, T/C [22] was 3.57%, the viability, T/C [23] was 6.05% and the viability, T/C [24] was 3.88%. The viability, T/C [25] was 3.58%, the viability, T/C [26] was 3.65% and the viability, T/C [27] was 5.09%. For the same compound, the viability, T/C [28] was 5.88%, the viability, T/C [29] was 6.54% and the viability, T/C [30] was 6.07%. It also gave a viability, T/C [31] of 3.12%, a viability, T/C [32] of 2.35% and a viability, T/C [33] of 4.11%. For the same compound, the viability, T/C [34] was 3.93%, the viability, T/C [35] was 6.11% and the viability, T/C [36] was 3.94%.

`CCCS(=O)(=O)Nc1ccc(F)c(C(=O)c2c[nH]c3ncc(-c4ccc(Cl)cc4)cc23)c1F` + CN1CCN(c2cc(C(=O)Nc3cc4cc(-c5cnn(C)c5)ccc4cn3)ccn2)CC1 was tested, and the IC50 (second compound 0.0316 µM) was > 10000 nM, the IC50 (second compound 0.1 µM) was 5270 nM and the IC50 (second compound 0.316 µM) was < 31.6 nM. The IC50 (second compound 1 µM) was < 31.6 nM, the IC50 (second compound 3.16 µM) was < 31.6 nM and the IC50 (second compound 10 µM) was < 31.6 nM. For the same compound, the viability, T/C [1] was 115%, the viability, T/C [2] was 98% and the viability, T/C [3] was 92.6%. For the same compound, the viability, T/C [4] was 111%, the viability, T/C [5] was 113% and the viability, T/C [6] was 98.8%. The viability, T/C [7] was 59.5%, the viability, T/C [8] was 63.6% and the viability, T/C [9] was 62.2%. For the same compound, the viability, T/C [10] was 95.5%, the viability, T/C [11] was 57.5% and the viability, T/C [12] was 32.8%. The viability, T/C [13] was 5.7%, the viability, T/C [14] was 6.53% and the viability, T/C [15] was 5.51%. For the same compound, the viability, T/C [16] was 4.08%, the viability, T/C [17] was 8.45% and the viability, T/C [18] was 5.43%. The viability, T/C [19] was 4.51%, the viability, T/C [20] was 1.83% and the viability, T/C [21] was 3.28%. It also gave a viability, T/C [22] of 1.8%, a viability, T/C [23] of 2.28% and a viability, T/C [24] of 2.25%. For the same compound, the viability, T/C [25] was 3.73%, the viability, T/C [26] was 4.36% and the viability, T/C [27] was 3.99%. For the same compound, the viability, T/C [28] was 4.7%, the viability, T/C [29] was 5.81% and the viability, T/C [30] was 4.4%. It also gave a viability, T/C [31] of 4.02%, a viability, T/C [32] of 2.72% and a viability, T/C [33] of 2.7%. It also gave a viability, T/C [34] of 3.39%, a viability, T/C [35] of 3.28% and a viability, T/C [36] of 2.76%.

For `COC1C=CCC(C)C(C)S(=O)(=O)NC(=O)c2ccc3c(c2)N(CC2CCC21)CC1(CCCc2cc(Cl)ccc21)CO3` (stereo unspecified) + CN1CCN(c2cc(C(=O)Nc3cc4cc(-c5cnn(C)c5)ccc4cn3)ccn2)CC1, the IC50 (second compound 0.0316 µM) was 5880 nM, the IC50 (second compound 0.1 µM) was 306 nM and the IC50 (second compound 0.316 µM) was < 31.6 nM. The IC50 (second compound 1 µM) was < 31.6 nM, the IC50 (second compound 3.16 µM) was < 31.6 nM and the IC50 (second compound 10 µM) was < 31.6 nM. It also gave a viability, T/C [1] of 94.5%, a viability, T/C [2] of 89.8% and a viability, T/C [3] of 109%. It also gave a viability, T/C [4] of 87.1%, a viability, T/C [5] of 82.4% and a viability, T/C [6] of 23.2%. For the same compound, the viability, T/C [7] was 74.2%, the viability, T/C [8] was 77.4% and the viability, T/C [9] was 45.6%. The viability, T/C [10] was 25.9%, the viability, T/C [11] was 14.9% and the viability, T/C [12] was 9.47%. It also gave a viability, T/C [13] of 5.64%, a viability, T/C [14] of 6.22% and a viability, T/C [15] of 4.57%. For the same compound, the viability, T/C [16] was 5.41%, the viability, T/C [17] was 4.64% and the viability, T/C [18] was 2.38%. It also gave a viability, T/C [19] of 1.87%, a viability, T/C [20] of 1.41% and a viability, T/C [21] of 1.74%. It also gave a viability, T/C [22] of 2.02%, a viability, T/C [23] of 3.06% and a viability, T/C [24] of 3.77%. It also gave a viability, T/C [25] of 4.46%, a viability, T/C [26] of 3.64% and a viability, T/C [27] of 3.99%. The viability, T/C [28] was 2.73%, the viability, T/C [29] was 2.81% and the viability, T/C [30] was 1.89%. For the same compound, the viability, T/C [31] was 4.15%, the viability, T/C [32] was 2.18% and the viability, T/C [33] was 2.3%. It also gave a viability, T/C [34] of 2.91%, a viability, T/C [35] of 2.23% and a viability, T/C [36] of 1.54%.
